Source: US11071721B2, “Bicyclic amide compounds and methods of use thereof” (Genentech, Inc., priority 2016, dated 2021)
pKi: −log10 of the molar value.

Biological target: human RIP1 kinase domain (2-375) (Homo sapiens (Human), UniProt Q13546)
Experiment: RIP1 kinase inhibition assay (Transcreener ADP biochemical enzyme assay)
Conditions: Ki app (Morrison tight-binding fit); 50 nM enzyme, 50 uM ATP, 2 hours incubation, fluorescence polarization
Method: RIP1 Kinase Inhibition Assays (Biochemical Assay):
The compounds of the present invention were tested for their capacity to inhibit RIP K activity as described below.
Enzyme assay: The ability of the receptor interacting protein kinase (RIPK1) to catalyze the hydrolysis of adenosine-5′-triphosphate (ATP) is monitored using the Transcreener ADP (adenosine-5′-diphosphate) assay (BellBrook Labs). Purified human RIP1 kinase domain (2-375) (50 nM) derived from a baculovirus-infected insect cell expression system is incubated with test compounds for 2 hours in 50 mM Hepes buffer (pH 7.5) containing 30 mM MgCl2, 1 mM dithiothreitol, 50 uM ATP, 0.002% Brij-35, and 0.5% dimethyl sulfoxide (DMSO). Reactions are quenched by the addition of 1× Bell Brooks Stop buffer B (20 mM Hepes (ph7.5), 40 mM ethylenediaminetetraacetic acid and 0.02% Brij-35) containing an additional 12 mM EDTA and 55 ug/mL ADP2 antibody and 4 nM ADP-AlexaFluor® 633 tracer. The tracer bound to the antibody is displaced by the ADP generated during the RIP1K reaction, which causes a decrease in fluorescence polarization that is measured by laser excitation at 633 nm with a FP microplate reader M1000. Fractional activity was plotted against test article concentration. Using Genedata Screener software (Genedata; Basel, Switzerland), the data were fit to the tight-binding apparent inhibition constant (Ki^app) Morrison equation [Williams, J. W. and Morrison, J. F. (1979) The kinetics of reversible tight-binding inhibition. Methods Enzymol 63: 437-67]. The following equation was used to calculate fractional activity and Ki^app:
[formula] where [E]T and [I]T are the total concentrations of active enzyme and test article, respectively.

Chain of human RIP1 kinase domain (2-375) (Q13546 2-375): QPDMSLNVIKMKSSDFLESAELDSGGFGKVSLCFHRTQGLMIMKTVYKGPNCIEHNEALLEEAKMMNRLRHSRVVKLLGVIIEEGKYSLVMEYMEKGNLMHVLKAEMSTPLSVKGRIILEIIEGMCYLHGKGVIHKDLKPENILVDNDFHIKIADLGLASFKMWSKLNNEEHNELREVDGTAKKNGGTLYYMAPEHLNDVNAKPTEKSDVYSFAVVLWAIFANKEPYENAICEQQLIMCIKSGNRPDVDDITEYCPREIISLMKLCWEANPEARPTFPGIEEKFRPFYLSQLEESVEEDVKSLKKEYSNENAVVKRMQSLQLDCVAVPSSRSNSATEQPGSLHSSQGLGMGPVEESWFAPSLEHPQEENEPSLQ

| pKi | SMILES |
| --- | --- |
| 7.52 | O=C(c1nc2n(n1)[C@H](c1ccccc1)C[C@@H]2F)N1CCC(Cc2ccccc2)C1 (mixture of isomers) [Example 93, (3-benzylpyrrolidin-1-yl)-[rac-(5S,7S)-7-fIuoro-5-phenyl-6,7-dihydro-5H-pyrrolo[1,2-b][1,2,4]triazol-2-yl]methanone] |
| 6.80 | O=C(c1nc2n(n1)[C@H](c1ccccc1)C[C@@H]2F)N1CCCc2ccccc2C1 (racemic) [Example 94, [rac-(5S,7S)-7-fluoro-5-phenyl-6,7-dihydro-5H-pyrrolo[1,2-b][1,2,4]triazol-2-yl]-(1,3,4,5-tetrahydro-2-benzazepin-2-yl)methanone] |
| 7.74 | O=C(c1nc2n(n1)[C@H](c1ccccc1)C[C@@H]2F)N1CCc2cccc(F)c2C1 (racemic) [Example 95, (8-fluoro-3,4-dihydro-1H-isoquinolin-2-yl)-[rac-(5S,7S)-7-fluoro-5-phenyl-6,7-dihydro-5H-pyrrolo[1,2-b][1,2,4]triazol-2-yl]methanone] |
| 7.24 | CC1c2c(F)cccc2CCN1C(=O)c1nc2n(n1)[C@H](c1ccccc1)C[C@@H]2F (mixture of isomers) [Example 96, (8-fluoro-1-methyl-3,4-dihydro-1H-isoquinolin-2-yl)-[rac-(5S,7S)-7-fluoro-5-phenyl-6,7-dihydro-5H-pyrrolo[1,2-b][1,2,4]triazol-2-yl]methanone] |
| 7.24 | CC1c2ccccc2CCN1C(=O)c1nc2n(n1)[C@H](c1ccccc1)C[C@@H]2F (mixture of isomers) [Example 97, (1-methyl-3,4-dihydro-1H-isoquinolin-2-yl)-[rac-(5S,7S)-7-fluoro-5-phenyl-6,7-dihydro-5H-pyrrolo[1,2-b][1,2,4]triazol-2-yl]methanone] |
| 6.57 | O=C(c1nc2n(n1)[C@@H](c1ccccc1)C[C@H]2F)N1CC2C(C1)C2(F)F (mixture of isomers) [Example 100, (6,6-difluoro-3-azabicyclo[3.1.0]hexan-3-yl)-[rac-(5R,7R)-7-fluoro-5-phenyl-6,7-dihydro-5H-pyrrolo[1,2-b][1,2,4]triazol-2-yl]methanone] |
| 7.09 | O=C(c1nc2n(n1)[C@@H](c1ccccc1)C[C@H]2F)N1CC2CC2C1 (mixture of isomers) [Example 101, 3-azabicyclo[3.1.0]hexan-3-yl-[rac-(5R, 7R)-7-fluoro-5-phenyl-6,7-dihydro-5H-pyrrolo[1,2-b][1,2,4]triazol-2-yl] methanone] |
| 6.62 | O=C(c1cc2n(n1)C(c1ccccc1)CC2)N1CC(F)(F)C1 (racemic) [Example 102, (3,3-difluoroazetidin-1-yl)-(6-phenyl-5,6-dihydro-4H-pyrrolo[1,2-b]pyrazol-2-yl)methanone] |
| 7.51 | O=C(c1nc2n(n1)[C@@H](c1ccccc1)C[C@H]2F)N1CCC1 (racemic) [Example 104, azetidin-1-yl-[rac-(5R,7R)-7-fluoro-5-phenyl-6,7-dihydro-5H-pyrrolo [1,2-b][1,2,4]triazol-2-yl]methanone] |
| 7.25 | CN(C)C(=O)c1nc2n(n1)[C@@H](c1ccccc1)C[C@H]2F (racemic) [Example 105, rac-(5R,7R)-7-fluoro-N,N-dimethyl-5-phenyl-6,7-dihydro-5H-pyrrolo[1,2-b][1,2,4]triazole-2-carboxamide] |

Further lines, the compound ahead of its results:

| SMILES | pKi |
| --- | --- |
| O=C(c1nc2n(n1)[C@H](c1ccccc1)C[C@@H]2F)N1CC2CC1CC2(F)F (mixture of isomers) [Example 87, (5,5-difluoro-2-azabicyclo[2.2.1]heptan-2-yl)-[rac-(5S,7S)-7-fluoro-5-phenyl-6,7-dihydro-5H-pyrrolo[1,2-b][1,2,4]triazol-2-yl]methanone] | 6.82 |
| O=C(c1nc2n(n1)[C@H](c1ccccc1)C[C@@H]2F)N1CCc2ccncc2C1 (racemic) [Example 88, 3,4-dihydro-1H-2,7-naphthyridin-2-yl-[rac-(5S,7S)-7-fluoro-5-phenyl-6,7-dihydro-5H-pyrrolo[1,2-b][1,2,4]triazol-2-yl]methanone] | 7.27 |
| O=C(c1nc2n(n1)[C@H](c1ccccc1)C[C@@H]2F)N1CCc2ncccc2C1 (racemic) [Example 89, 7,8-dihydro-5H-1,6-naphthyridin-6-yl-[rac-(5S,7S)-7-fluoro-5-phenyl-6,7-dihydro-5H-pyrrolo[1,2-b][1,2,4]triazol-2-yl]methanone] | 6.89 |
| CN(C(=O)c1nc2n(n1)[C@H](c1ccccc1)C[C@@H]2F)c1ccccc1 (racemic) [Example 90, rac-(5S,7S)-7-fluoro-N-methyl-N,5-diphenyl-6,7-dihydro-5H-pyrrolo[1,2-b][1,2,4]triazole-2-carboxamide] | 6.21 |
| CN(CC(F)F)C(=O)c1nc2n(n1)[C@H](c1ccccc1)C[C@@H]2F (racemic) [Example 91, rac-(5S,7S)-N-(2,2-difluoroethyl)-7-fluoro-N-methyl-5-phenyl-6,7-dihydro-5H-pyrrolo[1,2-b] [1,2,4]triazole-2-carboxamide] | 7.38 |
| CN(CC(F)(F)F)C(=O)c1nc2n(n1)[C@H](c1ccccc1)C[C@@H]2F (racemic) [Example 92, rac-(5S,7S)-7-fluoro-N-methyl-5-phenyl-N-(2,2,2-trifluoroethyl)-6,7-dihydro-5H-pyrrolo [1,2-b][1,2,4]triazole-2-carboxamide] | 7.00 |
| O=C(c1nc2n(n1)[C@@H](c1ccccc1)CC2(F)F)N1CC(F)(F)C1 (single isomer, unassigned) [Example 1a] | 8.10 |
| O=C(c1nc2n(n1)[C@@H](c1ccccc1)CC2(F)F)N1CC(F)(F)C1 (single isomer, unassigned) [Example 1b] | < 5.00 |
| CC[C@@]1(C)OCc2cnc(C(=O)N3CC(F)(F)C3)cc21 (single isomer, unassigned) [Example 7] | 5.70 |
| O=C(c1nc2n(n1)[C@H](c1ccccc1F)CC2)N1CC(F)(F)C1 (single isomer, unassigned) [Example 10] | < 5.00 |
| O=C(c1nc2n(n1)[C@@H](c1ccccc1F)CC2)N1CC(F)(F)C1 (single isomer, unassigned) [Example 11] | 8.05 |
| O=C(c1nc2n(n1)[C@@H](c1ccccc1F)CC2)N1CCC1 (single isomer, unassigned) [Example 12] | 6.86 |
| O=C(c1nc2n(n1)CC[C@H]2c1ccccc1)N1CC(F)(F)C1 (single isomer, unassigned) [Example 15] | 7.18 |
| CC1(F)CN(C(=O)c2nc3n(n2)[C@@H](c2ccccc2)CC3(F)F)C1 (single isomer, unassigned) [Example 38] | 7.32 |
| O=C(c1nc2n(n1)[C@@H](c1ccccc1)CC2(F)F)N1CC(F)C1 (single isomer, unassigned) [Example 48] | 7.15 |
| O=C(c1nc2n(n1)[C@H](c1ccccc1)C[C@@H]2F)N1CC[C@H]1C(F)F (single isomer, unassigned) [Example 52] | 8.30 |
| O=C(c1nc2n(n1)[C@@H](c1ccccc1)C[C@H]2F)N1CCC[C@@H]1C(F)F (single isomer, unassigned) [Example 65] | 7.44 |
| C[C@H]1[C@@H](C(F)(F)F)CCN1C(=O)c1nc2n(n1)[C@H](c1ccccc1)C[C@@H]2F (single isomer, unassigned) [Example 86] | 8.30 |
| O=C(c1nc2n(n1)[C@H](c1ccccc1)CC2)N1CC(F)(F)C1 (stereo in doubt) [Example 31, (3,3-difluoroazetidin-1-yl)-[rac-(5S)-5-phenyl-6,7-dihydro-5H-pyrrolo[1,2-b][1,2,4]triazol-2-yl]methanone] | 5.15 |
